Test results reported in ChEMBL document CHEMBL4706559, “New indolylarylsulfone non-nucleoside reverse transcriptase inhibitors show low nanomolar inhibition of single and double HIV-1 mutant strains” (Eur J Med Chem, 2020).

Key:
[1] = test system: Human immunodeficiency virus 1; assay: Ratio of Koff of HIV-1 p66/p51 reverse transcriptase K103N/Y181C double mutant/nucleic acid/dTTP ternary complex to Koff of HIV-1 p66/p51 reverse transcriptase/nucleic acid binary complex using poly(rA)/oligo(dT) as templates in presence of [3H]dTTP
[2] = Inhibition of RNA-dependent DNA polymerase activity of recombinant HIV-1 p66/p51 reverse transcriptase K103N/Y181C mutant assessed as inhibition of [3H]dTTP incorporation using poly(rA)/oligo(dT) as templates incubated for 15 mins by MicroBeta scintillation counting method; design: species or system Human immunodeficiency virus 1
[3] = test system: Human immunodeficiency virus 1; assay: Antiviral activity against HIV1 harboring RT Y188L mutant infected in human MT4 cells assessed as protection against virus-induced cytopathic effect by MTT assay; format: functional, organism-based; conditions: Human immunodeficiency virus 1, MT4
[4] = test system: Human immunodeficiency virus 1; assay: Binding affinity to HIV-1 p66/p51 reverse transcriptase K103N/Y181C double mutant/nucleic acid binary complex assessed as dissociation constant using poly(rA)/oligo(dT) as templates in presence of [3H]dTTP
[5] = biological target: Human immunodeficiency virus type 1 reverse transcriptase (Human immunodeficiency virus 1) (UniProt Q72547); assay: Ratio of Kon of wild type HIV-1 p66/p51 reverse transcriptase/nucleic acid binary complex to Kon of wild type HIV-1 p66/p51 reverse transcriptase/nucleic acid/dTTP ternary complex using poly(rA)/oligo(dT) as templates in presence of [3H]dTTP
[6] = test system: Human immunodeficiency virus 1; assay: Inhibition of HIV1 p66/p51 reverse transcriptase K103N/Y181C double mutant assessed as apparent Vmax at 300 nM using 10 to 500 uM poly(rA)/oligo(dT) as templates in presence of fixed concentration of [3H]dTTP by Michaelis-Menten analysis (reference value: 12 +/- 1%)
[7] = biological target: Human immunodeficiency virus type 1 reverse transcriptase (Human immunodeficiency virus 1) (UniProt Q72547); assay: Binding affinity to wild type HIV-1 p66/p51 reverse transcriptase/nucleic acid/dTTP ternary complex assessed as association constant using poly(rA)/oligo(dT) as templates in presence of [3H]dTTP
[8] = test system: Human immunodeficiency virus 1; assay: Antiviral activity against wild type HIV-1 P1 infected in human C8166 cells assessed as reduction in viral RNA production at 25 nM; format: functional; conditions: Human immunodeficiency virus 1, P1, C8166
[9] = Binding affinity to HIV-1 p66/p51 reverse transcriptase K103N/Y181C double mutant/nucleic acid/dTTP ternary complex using poly(rA)/oligo(dT) as templates in presence of [3H]dTTP; design: species or system Human immunodeficiency virus 1
[10] = test system: Human immunodeficiency virus 1; assay: Antiviral activity against HIV1 harboring RT K103N mutant infected in human MT4 cells assessed as protection against virus-induced cytopathic effect by MTT assay; format: functional, organism-based; conditions: Human immunodeficiency virus 1, MT4
[11] = biological target: Human immunodeficiency virus type 1 reverse transcriptase (Human immunodeficiency virus 1) (UniProt Q72547); assay: Inhibition of wild type HIV1 p66/p51 reverse transcriptase assessed as apparent Vmax at 30 nM using fixed concentration of poly(rA)/oligo(dT) as templates in presence of 2 to 100 uM of [3H]dTTP by Michaelis-Menten analysis (reference value: 9.7 +/- 12%)
[12] = test system: Human immunodeficiency virus 1; assay: Binding affinity to HIV-1 p66/p51 reverse transcriptase K103N/Y181C double mutant/nucleic acid binary complex assessed as association constant using poly(rA)/oligo(dT) as templates in presence of [3H]dTTP
[13] = Inhibition of RNA-dependent DNA polymerase activity of recombinant HIV-1 p66/p51 reverse transcriptase Y188L mutant assessed as inhibition of [3H]dTTP incorporation using poly(rA)/oligo(dT) as templates incubated for 15 mins by MicroBeta scintillation counting method; design: species or system Human immunodeficiency virus 1
[14] = biological target: Human immunodeficiency virus type 1 reverse transcriptase (Human immunodeficiency virus 1) (UniProt Q72547); assay: Synergistic inhibition of wild type HIV-1 p66/p51 reverse transcriptase assessed as combination index using poly(rA)/oligo(dT) as templates in presence of [3H]dTTP preincubated with enzyme and AZTTP followed by substrate addition
[15] = test system: Human immunodeficiency virus 1; assay: Resistance index, ratio of EC50 for antiviral activity against HIV1 harboring RT Y188L mutant infected in human MT4 cells to EC50 for antiviral activity against HIV1 NL4-3 infected in human MT4 cells; format: functional
[16] = test system: Human immunodeficiency virus 1; assay: Inhibition of HIV1 p66/p51 reverse transcriptase K103N/Y181C double mutant assessed as apparent Km of substrate at 75 nM using […] as templates in presence of fixed concentration of [3H]dTTP by Michaelis-Menten analysis (reference value: 106+/- 16 nM)
[17] = test system: Human immunodeficiency virus 1; assay: Resistance index, ratio of EC50 for antiviral activity against HIV1 harboring RT K103N/Y181C double mutant infected in human MT4 cells to EC50 for antiviral activity against HIV1 NL4-3 infected in human MT4 cells; format: functional
[18] = test system: Human immunodeficiency virus 1; assay: Antiviral activity against HIV-1 NL4-3 infected in human MT-4 cells assessed as virus induced cytopathic effect by MTT assay; format: functional, organism-based; conditions: Human immunodeficiency virus 1, NL4-3, MT4
[19] = biological target: Human immunodeficiency virus type 1 reverse transcriptase (Human immunodeficiency virus 1) (UniProt Q72547); assay: Inhibition of wild type HIV1 p66/p51 reverse transcriptase assessed as apparent Vmax at 150 nM using 10 to 500 uM poly(rA)/oligo(dT) as templates in presence of fixed concentration of [3H]dTTP by Michaelis-Menten analysis (reference value: 10 +/- 0.5%)
[20] = biological target: Human immunodeficiency virus type 1 reverse transcriptase (Human immunodeficiency virus 1, UniProt Q72547, K103N); assay: Inhibition of RNA-dependent DNA polymerase activity of recombinant HIV-1 p66/p51 reverse transcriptase K103N mutant assessed as inhibition of [3H]dTTP incorporation using poly(rA)/oligo(dT) as templates incubated for 15 mins by MicroBeta scintillation counting method
[21] = biological target: Human immunodeficiency virus type 1 reverse transcriptase (Human immunodeficiency virus 1) (UniProt Q72547); assay: Binding affinity to wild type HIV-1 p66/p51 reverse transcriptase/nucleic acid/dTTP ternary complex assessed as dissociation constant using poly(rA)/oligo(dT) as templates in presence of [3H]dTTP
[22] = biological target: Human immunodeficiency virus type 1 reverse transcriptase (Human immunodeficiency virus 1, UniProt Q72547); assay: Binding affinity to wild type HIV-1 p66/p51 reverse transcriptase/nucleic acid binary complex using poly(rA)/oligo(dT) as templates in presence of [3H]dTTP
[23] = biological target: Human immunodeficiency virus type 1 reverse transcriptase (Human immunodeficiency virus 1) (UniProt Q72547); assay: Inhibition of wild type HIV1 p66/p51 reverse transcriptase assessed as apparent Vmax at 225 nM using fixed concentration of poly(rA)/oligo(dT) as templates in presence of 2 to 100 uM of [3H]dTTP by Michaelis-Menten analysis (reference value: 9.7 +/- 12%)
[24] = biological target: Human immunodeficiency virus type 1 reverse transcriptase (Human immunodeficiency virus 1) (UniProt Q72547); assay: Binding affinity to free form of wild type HIV-1 p66/p51 reverse transcriptase assessed as association constant using poly(rA)/oligo(dT) as templates in presence of [3H]dTTP
[25] = Selectivity ratio of CC50 for human MT4 cells to EC50 for antiviral activity against HIV-1 NL4-3 infected in human MT4 cells; format: toxicity, cell-based; conditions: read-out: Ratio CC50/EC50
[26] = biological target: Human immunodeficiency virus type 1 reverse transcriptase (Human immunodeficiency virus 1) (UniProt Q72547); assay: Inhibition of wild type HIV1 p66/p51 reverse transcriptase assessed as apparent Vmax at 90 nM using fixed concentration of poly(rA)/oligo(dT) as templates in presence of 2 to 100 uM of [3H]dTTP by Michaelis-Menten analysis (reference value: 9.7 +/- 12%)

**Q.** With `Cc1cc(C)cc(S(=O)(=O)c2c(C(=O)NCc3ccccc3O)[nH]c3ccc(Cl)cc23)c1` as the compound, how does the Ratio [1] read?
**A.** 4

**Q.** And the IC50 [2]?
**A.** 0.076 µM

**Q.** What about the EC50 [3] of the same compound?
**A.** 0.0213 µM

**Q.** And the K [4]?
**A.** 8 10^-3/s

**Q.** And the Ratio [5]?
**A.** 7

**Q.** What about the Vmax(app) [6] of the same compound?
**A.** 3.2%

**Q.** What about the K [7] of the same compound?
**A.** 15 10^-5/nM/s

**Q.** And the inhibition at 0.025 µM [8]?
**A.** 100%

**Q.** And the Ki [9]?
**A.** 0.078 µM

**Q.** And the EC50 [10]?
**A.** < 0.0007 µM

**Q.** What about the Vmax(app) [11] of the same compound?
**A.** 5.6%

**Q.** And the K [12]?
**A.** 10 10^-5/nM/s

**Q.** And the IC50 [13]?
**A.** 0.061 µM

**Q.** What about the CI [14] of the same compound?
**A.** 1.15

**Q.** What about the “Ratio EC50” value [15] of the same compound?
**A.** >30

**Q.** And the Km [16]?
**A.** 0.108 µM

**Q.** What about the “Ratio EC50” value [17] of the same compound?
**A.** >8.8

**Q.** And the EC50 [18]?
**A.** < 0.0007 µM

**Q.** What about the Vmax(app) [19] of the same compound?
**A.** 1.2%

**Q.** What about the IC50 [20] of the same compound?
**A.** 0.073 µM

**Q.** What about the K [21] of the same compound?
**A.** 4.1 10^-3/s

**Q.** What about the Ki [22] of the same compound?
**A.** 0.036 µM

**Q.** What about the Vmax(app) [23] of the same compound?
**A.** 0.9%

**Q.** And the K [24]?
**A.** 13 10^-5/nM/s

**Q.** And the selectivity ratio [25]?
**A.** > 39700

**Q.** And the Vmax(app) [26]?
**A.** 2.9%
